According to the supplement of paper PMC13380429:

How the values were obtained:
HepG2 [1] = assay: drug sensitivity score (DSS) for viability; higher = more toxic; extreme values may be limits of the assay; conditions: 72 h
Caco-2 [2] = assay: as above; conditions: 72 h
Vero E6 [3] = assay: as above; conditions: 72 h
U2OS [4] = assay: as above; conditions: 72 h
Calu-3 [5] = assay: as above; conditions: 72 h
HepG2 [6] = assay: relative viability EC50 (midpoint between 100% and the lowest measured viability); higher = less toxic; conditions: 72 h
Vero E6 [7] = assay: as above; conditions: 72 h
Calu-3 [8] = assay: as above; conditions: 72 h
HepG2 [9] = assay: cell viability relative to DMSO; higher = less toxic; conditions: 72 h
Caco-2 [10] = assay: as above; conditions: 72 h
Vero E6 [11] = assay: as above; conditions: 72 h
U2OS [12] = assay: as above; conditions: 72 h
Calu-3 [13] = assay: as above; conditions: 72 h
[14] = tested on: A549-ACE2 infected with SARS-CoV-2; assay: cell count relative to DMSO; higher = less toxic; conditions: 24 h
[15] = tested on: A549-ACE2 infected with SARS-CoV-2; assay: SARS-CoV-2 infection rate relative to DMSO; higher = more infection; conditions: 24 h
[16] = tested on: A549-ACE2 infected with SARS-CoV-2; assay: morphology score (similarity to uninfected cells); higher = more like uninfected cells; conditions: 24 h
A549-ACE2 [17] = assay: phospholipidosis EC50; higher = less potent phospholipidosis inducer
A549-ACE2 [18] = assay: drug-induced phospholipidosis relative to tamoxifen; higher = more phospholipidosis
Caco-2 [19] = assay: relative viability EC50 (midpoint between 100% and the lowest measured viability); higher = less toxic; conditions: 72 h
U2OS [20] = assay: as above; conditions: 72 h

OC(c1cc(C(F)(F)F)nc2c(C(F)(F)F)cccc12)C1CCCCN1 (stereo not drawn) [mefloquine]
Conditions	drug sensitivity score	relative viability EC50 [µM]
Caco-2 [2]	1.1	–
Calu-3 [5]	0.6	–
Calu-3 [8]	–	> 10
HepG2 [1]	6.7	–
HepG2 [6]	–	2.21
U2OS [4]	1.1	–
Vero E6 [3]	0.5	–
Vero E6 [7]	–	> 10

Conditions	SARS-CoV-2 infection rate [%]	cell count [%]	cell viability [%]	morphology score	phospholipidosis EC50 [µM]
A549-ACE2 [17], 24 h	–	–	–	–	1.57
A549-ACE2 [17], 48 h	–	–	–	–	2.78
A549-ACE2 [17], 72 h	–	–	–	–	3.29
Caco-2 [10], 1 nM	–	–	108	–	–
Caco-2 [10], 10 nM	–	–	103	–	–
Caco-2 [10], 100 nM	–	–	102	–	–
Caco-2 [10], 1000 nM	–	–	105	–	–
Caco-2 [10], 10000 nM	–	–	69.3	–	–
Calu-3 [13], 1 nM	–	–	110	–	–
Calu-3 [13], 10 nM	–	–	90.2	–	–
Calu-3 [13], 100 nM	–	–	105	–	–
Calu-3 [13], 1000 nM	–	–	103	–	–
Calu-3 [13], 10000 nM	–	–	76.9	–	–
HepG2 [9], 1 nM	–	–	98.1	–	–
HepG2 [9], 10 nM	–	–	89.9	–	–
HepG2 [9], 100 nM	–	–	98.9	–	–
HepG2 [9], 1000 nM	–	–	89.7	–	–
HepG2 [9], 10000 nM	–	–	10.8	–	–
U2OS [12], 1 nM	–	–	106	–	–
U2OS [12], 10 nM	–	–	99.6	–	–
U2OS [12], 100 nM	–	–	107	–	–
U2OS [12], 1000 nM	–	–	99.5	–	–
U2OS [12], 10000 nM	–	–	73	–	–
Vero E6 [11], 1 nM	–	–	101	–	–
Vero E6 [11], 10 nM	–	–	106	–	–
Vero E6 [11], 100 nM	–	–	102	–	–
Vero E6 [11], 1000 nM	–	–	103	–	–
Vero E6 [11], 10000 nM	–	–	78.7	–	–
[14], 0.1 µM	–	98	–	–	–
[14], 0.3 µM	–	98	–	–	–
[14], 1 µM	–	108	–	–	–
[14], 3 µM	–	122	–	–	–
[15], 0.1 µM	107	–	–	–	–
[15], 0.3 µM	94	–	–	–	–
[15], 1 µM	89	–	–	–	–
[15], 3 µM	32	–	–	–	–
[16], 0.1 µM	–	–	–	-0.29	–
[16], 0.3 µM	–	–	–	0.2	–
[16], 1 µM	–	–	–	0.27	–
[16], 3 µM	–	–	–	0.84	–

drug-induced phospholipidosis [%], A549-ACE2 [18]
Conditions	0.3 µM	0.833333 µM	3.33333 µM	6.66667 µM	10 µM
24 h	2.22	17.4	75	83.8	88.4
48 h	3.66	13	67.8	86.7	102
72 h	5.04	11.3	58.8	87.9	97.7

CC(C)COc1ccc(CNC(=O)N(Cc2ccc(F)cc2)C2CCN(C)CC2)cc1 [pimavanserin]
Conditions	drug sensitivity score	relative viability EC50 [µM]
Caco-2 [2]	0.1	–
Caco-2 [19]	–	> 10
Calu-3 [5]	0.1	–
Calu-3 [8]	–	> 10
HepG2 [1]	0.1	–
HepG2 [6]	–	> 10
U2OS [4]	0	–
U2OS [20]	–	> 10
Vero E6 [3]	0	–
Vero E6 [7]	–	> 10

Conditions	SARS-CoV-2 infection rate, [15] [%]	cell count, [14] [%]	cell viability, Caco-2 [10] [%]	cell viability, Calu-3 [13] [%]	cell viability, HepG2 [9] [%]	cell viability, U2OS [12] [%]	cell viability, Vero E6 [11] [%]	morphology score, [16]
1 nM	–	–	105	100	102	99.4	101	–
10 nM	–	–	95.7	97	104	99.2	101	–
100 nM	–	–	105	95.1	104	92.2	108	–
0.3 µM	100	101	–	–	–	–	–	-0.07
1000 nM	–	–	110	95.2	103	99.2	99.4	–
10000 nM	–	–	85.7	86.2	86.2	92	98.4	–

A549-ACE2 [18], 0.3 µM
Conditions	drug-induced phospholipidosis [%]
24 h	4.68
48 h	2.24
72 h	1.32

c1ccc2c(CCNc3ccc(Nc4ccncc4)cc3)c[nH]c2c1 [serdemetan]
Conditions	drug sensitivity score	relative viability EC50 [µM]
Caco-2 [2]	0.8	–
Caco-2 [19]	–	> 10
Calu-3 [5]	3.7	–
HepG2 [1]	5.1	–
HepG2 [6]	–	1.51
U2OS [4]	2.5	–
Vero E6 [3]	0.1	–
Vero E6 [7]	–	> 10

Conditions	SARS-CoV-2 infection rate [%]	cell count [%]	cell viability [%]	morphology score	phospholipidosis EC50 [µM]
A549-ACE2 [17], 24 h	–	–	–	–	3.5
A549-ACE2 [17], 48 h	–	–	–	–	3.63
Caco-2 [10], 1 nM	–	–	94.1	–	–
Caco-2 [10], 10 nM	–	–	94.2	–	–
Caco-2 [10], 100 nM	–	–	99	–	–
Caco-2 [10], 1000 nM	–	–	92.1	–	–
Caco-2 [10], 10000 nM	–	–	82.8	–	–
Calu-3 [13], 1 nM	–	–	98.5	–	–
Calu-3 [13], 10 nM	–	–	92.3	–	–
Calu-3 [13], 100 nM	–	–	105	–	–
Calu-3 [13], 1000 nM	–	–	92.8	–	–
Calu-3 [13], 10000 nM	–	–	51.7	–	–
HepG2 [9], 1 nM	–	–	94.8	–	–
HepG2 [9], 10 nM	–	–	99.5	–	–
HepG2 [9], 100 nM	–	–	98.6	–	–
HepG2 [9], 1000 nM	–	–	85.7	–	–
HepG2 [9], 10000 nM	–	–	45.6	–	–
U2OS [12], 1 nM	–	–	98.7	–	–
U2OS [12], 10 nM	–	–	97.5	–	–
U2OS [12], 100 nM	–	–	100	–	–
U2OS [12], 1000 nM	–	–	100	–	–
U2OS [12], 10000 nM	–	–	52.1	–	–
Vero E6 [11], 1 nM	–	–	93.1	–	–
Vero E6 [11], 10 nM	–	–	101	–	–
Vero E6 [11], 100 nM	–	–	97.4	–	–
Vero E6 [11], 1000 nM	–	–	93.5	–	–
Vero E6 [11], 10000 nM	–	–	87.9	–	–
[14], 0.3 µM	–	102	–	–	–
[14], 3 µM	–	106	–	–	–
[14], 10 µM	–	115	–	–	–
[14], 30 µM	–	82	–	–	–
[15], 0.3 µM	106	–	–	–	–
[15], 3 µM	72	–	–	–	–
[15], 10 µM	22	–	–	–	–
[15], 30 µM	43	–	–	–	–
[16], 0.3 µM	–	–	–	-0.18	–
[16], 3 µM	–	–	–	0.58	–
[16], 10 µM	–	–	–	0.82	–
[16], 30 µM	–	–	–	0.17	–

drug-induced phospholipidosis [%], A549-ACE2 [18]
Conditions	0.3 µM	0.833333 µM	3.33333 µM	6.66667 µM	10 µM	30 µM
24 h	0.45	0.3	12.7	59.1	43.6	17.2
48 h	-0.34	-2.16	8.14	56.1	35.4	–
72 h	-1.75	-1.63	6.6	–	–	–

C[S+]([O-])CCCCN=C=S (stereo not drawn) [sulforaphane]
Conditions	drug sensitivity score	relative viability EC50 [µM]
Caco-2 [2]	2.5	–
Calu-3 [5]	0	–
Calu-3 [8]	–	> 10
HepG2 [1]	4.1	–
U2OS [4]	1.1	–
U2OS [20]	–	> 10
Vero E6 [3]	0	–
Vero E6 [7]	–	> 10

Conditions	SARS-CoV-2 infection rate, [15] [%]	cell count, [14] [%]	cell viability, Caco-2 [10] [%]	cell viability, Calu-3 [13] [%]	cell viability, HepG2 [9] [%]	cell viability, U2OS [12] [%]	cell viability, Vero E6 [11] [%]	morphology score, [16]
1 nM	–	–	92.1	91	90.5	100	103	–
10 nM	–	–	107	91	89.7	104	108	–
100 nM	–	–	104	96	90.6	97.7	104	–
0.3 µM	95	104	–	–	–	–	–	0.21
1000 nM	–	–	91.3	108	79.8	97.9	94.6	–
3 µM	95	99	–	–	–	–	–	-0.05
10000 nM	–	–	70.9	97.9	72.3	77.4	90.2	–
10 µM	79	85	–	–	–	–	–	0.33
30 µM	18	109	–	–	–	–	–	0.82

drug-induced phospholipidosis [%], A549-ACE2 [18]
Conditions	0.3 µM	0.833333 µM	3.33333 µM	6.66667 µM	10 µM	30 µM
24 h	1.81	-7.24	-2.29	1.54	3.49	22.7
48 h	1.78	-7.01	-5.48	-4.04	-0.65	15.9
72 h	-0.306	-6.99	-5.48	-5.9	-2.75	7.99
